US5290347A, “Salt-forming type dye, and its concentrated solution composition and ink composition” (Orient Chemical Industries, Ltd., priority 1991, dated 1994)

Key:
[1] = Solubility of the salt-forming type dyes (Tables 1-3); format: physicochemical; conditions: for Solubility, Ethanol: solvent: ethanol; for Solubility, Glycol ether: solvent: glycol ether
[2] = Solubility of the comparative dyes (Table 4), evaluation A-D; format: physicochemical; conditions: for Solubility, Glycol ether: solvent: glycol ether; for Solubility, Lower alcohol: solvent: lower alcohol; for Solubility, Water: solvent: water

SMILES | Solubility, Water:Solvent = 2:8 [1] [g/100 ml] | Solubility, Ethanol [1] [g/100 ml] | Solubility, Glycol ether [1] [g/100 ml] | Solubility, Water:Solvent = 2:8 [2] | Solubility, Glycol ether [2] | Solubility, Lower alcohol [2] | Solubility, Water [2]
COc1cc(N=Nc2cccc(P(=O)(O)O)c2)c(C)cc1N=Nc1c(S(=O)(=O)O)cc2ccc(N)cc2c1O [Black No. 1] | 15 | 3 | 10 | – | – | – | –
CC(=O)Nc1cc(S(=O)(=O)O)cc2cc(S(=O)(=O)O)c(N=Nc3cccc(P(=O)(O)O)c3)c(O)c12 [compound 7] | – | – | – | C (dissolved in an amount of 5% or less) | D (dissolved in an amount of 1% or less) | D (dissolved in an amount of 1% or less) | A (dissolved in an amount of 10% or more)
COc1cc(N=Nc2cccc(P(=O)(O)O)c2)c(C)cc1N=Nc1c(S(=O)(=O)O)cc2cc(S(=O)(=O)O)cc(N)c2c1O [Blue No. 3] | 25 | 10 | 30 | – | – | – | –
Nc1cc(S(=O)(=O)O)cc2cc(S(=O)(=O)O)c(N=Nc3ccc(N=Nc4cccc(S(=O)(=O)O)c4)c4ccc(O)cc34)c(O)c12 [compound 3] | – | – | – | C (dissolved in an amount of 5% or less) | D (dissolved in an amount of 1% or less) | D (dissolved in an amount of 1% or less) | A (dissolved in an amount of 10% or more)
Nc1cc2c(O)c(N=Nc3ccc(N=Nc4cccc(P(=O)(O)O)c4)c4ccc(S(=O)(=O)O)cc34)c(S(=O)(=O)O)cc2cc1S(=O)(=O)O [compound 5] | – | – | – | D (dissolved in an amount of 1% or less) | C (dissolved in an amount of 5% or less) | D (dissolved in an amount of 1% or less) | A (dissolved in an amount of 10% or more)
COc1cc(N=Nc2cccc(P(=O)(O)O)c2)c(C)cc1N=Nc1c(S(=O)(=O)O)cc2ccc(N)cc2c1O [Black No. 2] | 10 | 5 | 15 | – | – | – | –
Nc1ccc2cc(S(=O)(=O)O)c(N=Nc3ccc(N=Nc4cccc(P(=O)(O)O)c4)c4ccc(S(=O)(=O)O)cc34)c(O)c2c1 [Black No. 3] | 20 | 5 | 30 | – | – | – | –
Nc1cc(S(=O)(=O)O)cc2cc(S(=O)(=O)O)c(N=Nc3ccc(N=Nc4cccc(P(=O)(O)O)c4)c4ccc(O)cc34)c(O)c12 [Blue No. 2] | 30 | 5 | 25 | – | – | – | –
Cc1nn(-c2ccccc2)c(O)c1N=Nc1cccc(P(=O)(O)O)c1 [compound 1] | – | – | – | C (dissolved in an amount of 5% or less) | C (dissolved in an amount of 5% or less) | D (dissolved in an amount of 1% or less) | D (dissolved in an amount of 1% or less)
O=P(O)(O)c1cccc(N=Nc2c(S(=O)(=O)O)cc3cc(Nc4ccc5c(O)c(N=Nc6cccc(P(=O)(O)O)c6)c(S(=O)(=O)O)cc5c4)ccc3c2O)c1 [Red No. 3] | 30 | 5 | 25 | – | – | – | –
Nc1ccc2cc(S(=O)(=O)O)c(N=Nc3ccc(N=Nc4cccc(P(=O)(O)O)c4)c4ccc(S(=O)(=O)O)cc34)c(O)c2c1 [Black No. 8] | 20 | 8 | 30 | – | – | – | –

Second part, led by results:

Solubility, Water:Solvent = 2:8 [1] [g/100 ml] | Solubility, Ethanol [1] [g/100 ml] | Solubility, Glycol ether [1] [g/100 ml] | Solubility, Water:Solvent = 2:8 [2] | Solubility, Glycol ether [2] | Solubility, Lower alcohol [2] | SMILES | Solubility, Water [2]
10 | 10 | 30 | – | – | – | Nc1cc2c(O)c(N=Nc3ccc(N=Nc4cccc(P(=O)(O)O)c4)c4ccc(S(=O)(=O)O)cc34)c(S(=O)(=O)O)cc2cc1S(=O)(=O)O [Black No. 5] | –
30 | 5 | 30 | – | – | – | Nc1cc2c(O)c(N=Nc3ccc(N=Nc4cccc(P(=O)(O)O)c4)c4ccc(S(=O)(=O)O)cc34)c(S(=O)(=O)O)cc2cc1S(=O)(=O)O [Black No. 4] | –
10 | 10 | 15 | – | – | – | CC1(C)Nc2cccc3c(N=Nc4cc(S(=O)(=O)O)cc5cc(S(=O)(=O)O)c(N=Nc6cccc(P(=O)(O)O)c6)c(O)c45)ccc(c23)N1 [Black No. 6] | –
30 | 8 | 25 | – | – | – | CC(=O)Nc1cc(S(=O)(=O)O)cc2cc(S(=O)(=O)O)c(N=Nc3cccc(P(=O)(O)O)c3)c(O)c12 [Red No. 2] | –
30 | 3 | 20 | – | – | – | Nc1ccc2cc(S(=O)(=O)O)cc(O)c2c1N=Nc1cc(S(=O)(=O)O)cc2cc(S(=O)(=O)O)c(N=Nc3cccc(P(=O)(O)O)c3)c(O)c12 [Black No. 7] | –
– | – | – | C (dissolved in an amount of 5% or less) | B (dissolved in an amount of 5~10%) | C (dissolved in an amount of 5% or less) | Cc1nn(-c2ccccc2)c(O)c1N=Nc1cccc(S(=O)(=O)O)c1 [compound 2] | D (dissolved in an amount of 1% or less)
30 | 10 | 20 | – | – | – | O=P(O)(O)c1cccc(N=Nc2ccc(N=Nc3c(O)ccc4cc(S(=O)(=O)O)cc(S(=O)(=O)O)c34)cc2)c1 [Red No. 1] | –
– | – | – | D (dissolved in an amount of 1% or less) | B (dissolved in an amount of 5~10%) | C (dissolved in an amount of 5% or less) | Nc1cc(S(=O)(=O)O)cc2cc(S(=O)(=O)O)c(N=Nc3ccc(N=Nc4cccc(S(=O)(=O)O)c4)c4ccccc34)c(O)c12 [compound 8] | D (dissolved in an amount of 1% or less)
– | – | – | C (dissolved in an amount of 5% or less) | C (dissolved in an amount of 5% or less) | D (dissolved in an amount of 1% or less) | O=P(O)(O)c1cccc(N=Nc2ccc(N=Nc3c(O)ccc4cc(S(=O)(=O)O)cc(S(=O)(=O)O)c34)cc2)c1 [compound 4] | A (dissolved in an amount of 10% or more)
– | – | – | C (dissolved in an amount of 5% or less) | B (dissolved in an amount of 5~10%) | C (dissolved in an amount of 5% or less) | Nc1cc2c(O)c(N=Nc3ccc(N=Nc4cccc(P(=O)(O)O)c4)c4ccc(S(=O)(=O)O)cc34)c(S(=O)(=O)O)cc2cc1S(=O)(=O)O [compound 6] | C (dissolved in an amount of 5% or less)
30 | 3 | 25 | – | – | – | Nc1c(N=Nc2cccc(P(=O)(O)O)c2)c(S(=O)(=O)O)cc2cc(S(=O)(=O)O)c(N=Nc3cccc(P(=O)(O)O)c3)c(O)c12 [Blue No. 1] | –
30 | 3 | 30 | – | – | – | Nc1cc(N=Nc2cccc(P(=O)(O)O)c2)c2c(O)cc(S(=O)(=O)O)cc2c1N=Nc1cccc(P(=O)(O)O)c1 [Red No. 4] | –
